Assay results: ChEMBL document CHEMBL1130161, “Cyclic urea amides: HIV-1 protease inhibitors with low nanomolar potency against both wild type and protease inhibitor resistant mutants of HIV” (J Med Chem, 1997)

Columns and labels:
[1] = system: Human immunodeficiency virus; experiment: Resistance of constructed mutant MK639 virus was calculated as (IC90 for a mutant virus / IC90 of wt HXB2 virus).; assay type: functional
[2] = system: Human immunodeficiency virus; experiment: Resistance of constructed mutant 84V virus was calculated as (IC90 for a mutant virus / IC90 of wt HXB2 virus).; assay type: functional
[3] = system: Human immunodeficiency virus; experiment: Resistance of constructed mutant 48V/90M virus was calculated as (IC90 for a mutant virus / IC90 of wt HXB2 virus); assay type: functional
[4] = system: Human immunodeficiency virus; experiment: Resistance of constructed mutant 82A virus was calculated as (IC90 for a mutant virus / IC90 of wt HXB2 virus).; assay type: functional
[5] = system: Human immunodeficiency virus; experiment: Resistance of constructed mutant […]/47V/50V virus was calculated as (IC90 for a mutant virus / IC90 of wt HXB2 virus).; assay type: functional
[6] = target: Human immunodeficiency virus type 1 protease (Human immunodeficiency virus 1) (UniProt Q72874); experiment: Inhibitory concentration against accumulation of viral p24 antigen following infection of MT-4 cells; assay type: functional, cell-based; details: MT4
[7] = system: Human immunodeficiency virus; experiment: Resistance of constructed mutant ABT538 virus was calculated as (IC90 for a mutant virus / IC90 of wt HXB2 virus); assay type: functional
[8] = Resistance of constructed mutant 82F virus was calculated as (IC90 for a mutant virus / IC90 of wt HXB2 virus).; assay type: functional
[9] = target: Human immunodeficiency virus type 1 protease (Human immunodeficiency virus 1, UniProt Q72874); experiment: Binding affinity to inhibit the purified wild-type HIV-1 Protease

| Structure (SMILES) | Resistance [1] | Resistance [2] | Resistance [3] | Resistance [4] | Resistance [5] | IC90 [6] | Resistance [7] | Resistance [8] | Ki [9] |
| --- | --- | --- | --- | --- | --- | --- | --- | --- | --- |
| CC(C)[C@H](NC(=O)OCc1ccccc1)C(=O)N[C@@H](Cc1ccccc1)[C@H](O)[C@@H](O)[C@@H](Cc1ccccc1)NC(=O)[C@H](NC(=O)OCc1ccccc1)C(C)C | >150 | 2.1 | 1.3 | 6 | 6.5 | 195 nM | 13 | 1.8 | 0.25 nM |
| O=C(Nc1nccs1)c1cccc(CN2C(=O)N(Cc3cccc(C(=O)Nc4nccs4)c3)[C@H](Cc3ccccc3)[C@H](O)[C@@H](O)[C@H]2Cc2ccccc2)c1 | 8.7 | 1.2 | 0.2 | 2.2 | 23 | 4.2 nM | 24 | 0.9 |  |
| O=C(Nc1nc2ccccc2[nH]1)c1cccc(CN2C(=O)N(Cc3cccc(C(=O)Nc4nc5ccccc5[nH]4)c3)[C@H](Cc3ccccc3)[C@H](O)[C@@H](O)[C@H]2Cc2ccccc2)c1 | 0.7 | 0.6 | 0.3 | 0.8 | 1 | 5.1 nM | 1.2 | 0.3 |  |
| Nc1cccc(CN2C(=O)N(Cc3cccc(N)c3)[C@H](Cc3ccccc3)[C@H](O)[C@@H](O)[C@H]2Cc2ccccc2)c1 [MOZENAVIR] | 27 | 9.9 | 1.5 | 2.5 | 7.5 | 120 nM | 49 | 5.3 | 0.34 nM |
| O=C(Nc1ncc[nH]1)c1cccc(CN2C(=O)N(Cc3ccccc3)[C@H](Cc3ccccc3)[C@H](O)[C@@H](O)[C@H]2Cc2ccccc2)c1 | 15 | 2.9 | 0.6 | 1 |  | 21 nM | 29 | 0.5 | 0.033 nM |
| CC(C)c1nc(CN(C)C(=O)N[C@H](C(=O)N[C@@H](Cc2ccccc2)C[C@H](O)[C@H](Cc2ccccc2)NC(=O)OCc2cncs2)C(C)C)cs1 [RITONAVIR] | 5.5 | 2.4 | 5 | 7.1 | 6 |  | 30 | 8.9 |  |
| CC(C)CN(C[C@@H](O)[C@H](Cc1ccccc1)NC(=O)O[C@H]1CCOC1)S(=O)(=O)c1ccc(N)cc1 | 3.8 | 1.5 | 1.1 | 2.2 | 39 | 81 nM | 13 | 1.9 |  |
| O=C(Nc1nccs1)c1cccc(CN2C(=O)N(CC3CC3)[C@H](Cc3ccccc3)[C@H](O)[C@@H](O)[C@H]2Cc2ccccc2)c1 | 18.5 | 6.1 | 0.9 | 1.8 | 11 | 40 nM | 41 | 4.1 |  |
| O=C(Nc1nc2ccccc2[nH]1)c1cccc(CN2C(=O)N(CC3CC3)[C@H](Cc3ccccc3)[C@H](O)[C@@H](O)[C@H]2Cc2ccccc2)c1 | 26 | 8.4 | 1.9 | 1.9 | 2.1 | 17 nM | 86 | 2.1 | 0.037 nM |
| O=C(Nc1nccs1)c1cccc(CN2C(=O)N(Cc3ccccc3)[C@H](Cc3ccccc3)[C@H](O)[C@@H](O)[C@H]2Cc2ccccc2)c1 | 10 | 7.2 | 1.9 | 4.9 | 10.2 | 74 nM | 31 | 3 | 0.074 nM |
| CC(C)(C)NC(=O)[C@@H]1CN(Cc2cccnc2)CCN1C[C@@H](O)C[C@@H](Cc1ccccc1)C(=O)N[C@H]1c2ccccc2C[C@H]1O.O | 18 | 0.5 | 3.6 | 2.5 | 1.8 | 28 nM | 6.5 | 2.8 |  |
| O=C1N(Cc2ccc(CO)cc2)[C@H](Cc2ccccc2)[C@H](O)[C@@H](O)[C@@H](Cc2ccccc2)N1Cc1ccc(CO)cc1 [DMP-323] | 18 | 22 | 0.3 | 2.8 | 11 | 95 nM | 93 | 7.1 |  |
| O=C1N(CC2CC2)[C@H](Cc2ccccc2)[C@H](O)[C@@H](O)[C@@H](Cc2ccccc2)N1CC1CC1 | 11 | 6.6 | 1.3 | 1.4 | 1.7 | 2100 nM | 7.2 | 4 |  |
| CC(C)(C)NC(=O)[C@@H]1C[C@@H]2CCCC[C@@H]2CN1C[C@@H](O)[C@H](Cc1ccccc1)NC(=O)[C@H](CC(N)=O)NC(=O)c1ccc2ccccc2n1 | 5.3 | 0.7 | 20 | 0.9 |  | 15 nM | 0.6 | 0.4 |  |
| O=C(Nc1ncc[nH]1)c1cccc(CN2C(=O)N(Cc3cccc(C(=O)Nc4ncc[nH]4)c3)[C@H](Cc3ccccc3)[C@H](O)[C@@H](O)[C@H]2Cc2ccccc2)c1 | 0.4 | 0.7 | 0.1 | 2.7 | 0.4 | 19 nM | 0.2 | 1.6 |  |
| CCCCN1C(=O)N(Cc2cccc(C(=O)Nc3ncc[nH]3)c2)[C@H](Cc2ccccc2)[C@H](O)[C@@H](O)[C@H]1Cc1ccccc1 | 14.5 | 4.2 | 1 | 1.4 |  | 18 nM | 27 | 14.5 | 0.025 nM |
| O=C(Nc1ncc[nH]1)c1cccc(CN2C(=O)N(CC3CC3)[C@H](Cc3ccccc3)[C@H](O)[C@@H](O)[C@H]2Cc2ccccc2)c1 | 12 |  |  |  |  | 28 nM | 83 |  | 0.016 nM |
